Data taken from ChEMBL document CHEMBL1146165, “Structure-based de novo design, synthesis, and biological evaluation of the indole-based PPARgamma ligands (I)” (Bioorg Med Chem Lett, 2006).

Target: T1, Peroxisome proliferator-activated receptor gamma (Homo sapiens, UniProt P37231)
T1 sequence (P37231 whole entry): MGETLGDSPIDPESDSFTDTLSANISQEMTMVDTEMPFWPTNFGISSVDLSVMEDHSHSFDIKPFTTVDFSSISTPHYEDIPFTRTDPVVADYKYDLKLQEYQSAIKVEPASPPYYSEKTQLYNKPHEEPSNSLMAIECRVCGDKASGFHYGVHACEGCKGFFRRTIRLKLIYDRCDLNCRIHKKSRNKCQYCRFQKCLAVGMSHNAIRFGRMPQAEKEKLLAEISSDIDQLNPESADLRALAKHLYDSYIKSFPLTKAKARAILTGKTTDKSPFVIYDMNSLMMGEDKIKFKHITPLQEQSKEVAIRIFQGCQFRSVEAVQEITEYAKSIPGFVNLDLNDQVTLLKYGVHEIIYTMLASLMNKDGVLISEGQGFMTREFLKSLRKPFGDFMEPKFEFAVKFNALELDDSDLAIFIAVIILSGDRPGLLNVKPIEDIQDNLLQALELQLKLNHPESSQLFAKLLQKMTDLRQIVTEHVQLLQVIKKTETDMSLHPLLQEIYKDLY
Test: Binding affinity to human PPARgamma

Kd [µM] | Structure (SMILES)
8.69 | O=C(NC(Cc1c[nH]c2cc(OCc3ccccc3)ccc12)(C(=O)O)C(=O)O)c1ccc(Cl)cc1
6.86 | O=C(NC(Cc1c[nH]c2cc(OCc3ccccc3)ccc12)C(=O)O)c1ccc(Cl)cc1 (configuration not stated)
